# Data from paper PMC10600239, “Selective MCL-1 inhibitor ABBV-467 is efficacious in tumor models but is associated with cardiac troponin increases in patients” (Communications Medicine, 2023).
# Columns and labels:
# [1] = Phase 1 first-in-human study (NCT04178902): safety; type: in vivo
# Excerpt: This FIH study (NCT04178902) for ABBV-467 was a multicenter, open-label, dose-escalation study enrolling patients aged ≥18 years who had R/R MM, with the option to enroll R/R AML once recommended phase 2 dose (RP2D) was established. The study design was originally planned to consist of 2 parts: dose escalation and dose expansion, including a minimum of 6 patients treated during dose escalation at what was ultimately to be declared the RP2D. Patients must have received 3 or more prior lines of therapy including at least 1 or more immunomodulatory agents, 1 or more proteasome inhibitors, and 1 or more anti-CD38 monoclonal antibodies. Other eligibility criteria included: Eastern Cooperative Oncology Group performance status ≤2, measurable disease as defined by International Myeloma Working Group (IMWG) consensus criteria, an echocardiogram with an ejection fraction ≥50%, and adequate hematologic, hepatic, and renal function. The prespecified primary objectives were to characterize the safety and toxicity profiles, to establish the RP2D, and to determine the pharmacokinetic (PK) profile of ABBV-467 monotherapy. Safety evaluations included, but were not limited to, adverse event (AE) monitoring, physical examinations, vital sign measurements, electrocardiogram (ECG), cardiac enzyme monitoring, and clinical laboratory testing (hematology and chemistry) as a measure of safety and tolerability for the entire study duration. Parameters used to determine PK included maximum observed plasma concentration (Cmax), terminal elimination half-life (t1/2), area under the plasma concentration-time curve (AUC) from time 0 to time of last measurable concentration (AUCt), AUC from time 0 to infinity (AUC0-∞), and clearance using non-compartmental methods. Secondary objectives were preliminary evaluation of the efficacy of ABBV-467 in R/R MM and R/R AML. Preliminary efficacy endpoints were overall response rate (ORR), clinical benefit rate (CBR), and duration of response (DOR) as evaluated per adapted IMWG[36] criteria for MM and per adapted International Working Group (IWG)[37] and European Leukemia Net (ELN)[38] criteria for AML.
# ABBV-467 was administered as an IV infusion once weekly, for each 28-day cycle over at least a 30-minute period beginning on day 1 of cycle 1. The first infusion was given at half the target dose level. Dosing increased from patient cohort to patient cohort; the escalation was guided by a Bayesian optimal interval design[39] on the basis of the cumulative number of patients who experienced a dose-limiting toxicity (DLT) at a given ABBV-467 dose level. The DLT observation period was defined as the first treatment cycle (cycle 1). AEs of any grade resulting in discontinuation of study drug or missing any dose as a result of toxicity unexplained by underlying disease will be considered a DLT. Any AE of grade 3 or higher will be considered a DLT, unless toxicity can solely be attributed to the underlying disease, with the following clarifications. A non-hematologic DLT was defined as: grade 3 mucositis, nausea, vomiting, or diarrhea that required total parenteral nutrition, tube feeding, or hospitalization lasting >72 h; any grade 4 non-hematologic laboratory abnormality; and any instance of an AE that met the definition of Hy’s Law.
# Blood samples for plasma ABBV-467 concentration analysis were collected on days 1, 2, 3, and 15–17 of cycle 1 as well as on days 1 of cycles for PK analysis. Plasma samples of ABBV-467 were quantified using a validated LC-tandem MS with a lower limit of detection of 3 ng/mL. ABBV-467 PK parameters were calculated using standard non-compartmental approaches with Phoenix, WinNonlin (Version 8.0, Certara). AE severity was graded according to the National Cancer Institute Common Terminology Criteria for Adverse Events v5.0 for up to 30 days after the last dose. Analyses of AEs will include only treatment-emergent AEs. Triplicate ECGs were performed on days 1, 2, 15, and 16 of cycle 1. […]
# [2] = 4-week (5-dose) IV infusion toxicity study with 4-week recovery
# Protocol: range-finding studies, and 4-we ek (5-dose) with recovery GLP studies in rats and dogs. For all studies, test item was
# administered once weekly by 30 -minute IV infusion. Standard GLP endpoints were assessed including in- life (body weights,
# clinical observations, eye exams), electro cardiograms (dog s only), clinical pathology (hematology, clinical chemistry, and
# coagulation) and anatomic pathology (macroscopic and mic roscopic observations and organ weights).
# Study design was generally in compliance with FDA Redbook
# Guidance IV.C. 3.a. and IV.C.3. b. sections on short-term toxicity studies with rodents and non- rodents, respectively (viz.
# Studies were appr oved by the animal use committee of Charles River Laboratories, Mattawan, MI. No animals or
# data were excluded from analysis. Healthy dogs, as determined by veterinary physical examination and clinical pathology,
# were randomized between dose groups using laboratory information management softw are.
smiles,measurement,setting,value
Cc1c(Cl)c2c(Cl)c(C)c1-c1c(-c3ccc(F)cc3)sc3ncnc(c13)O[C@@H](C(=O)O)Cc1cc(ccc1OCc1ccnc(-c3ccc(OC[C@H]4COCCO4)cc3)n1)OC[C@@H](CN1CCN(C)CC1)O2 [ABBV-467],"Any AE, n (%)",[1]; 0.32 mg/kg (n = 2),2 (100) n (%)
same,TEAE: Anemia,[1]; 0.32 mg/kg (n = 2),1 (50) n (%)
same,TEAE: Arthralgia,[1]; 0.32 mg/kg (n = 2),0 n (%)
same,TEAE: Arthritis,[1]; 0.32 mg/kg (n = 2),0 n (%)
same,TEAE: Diarrhea,[1]; 0.32 mg/kg (n = 2),1 (50) n (%)
same,TEAE: Febrile neutropenia,[1]; 0.32 mg/kg (n = 2),0 n (%)
same,TEAE: Gastritis,[1]; 0.32 mg/kg (n = 2),0 n (%)
same,TEAE: Increased alanine aminotransferase,[1]; 0.32 mg/kg (n = 2),0 n (%)
same,TEAE: Increased amylase,[1]; 0.32 mg/kg (n = 2),0 n (%)
same,TEAE: Increased aspartate aminotransferase,[1]; 0.32 mg/kg (n = 2),0 n (%)
same,TEAE: Increased troponin I,[1]; 0.32 mg/kg (n = 2),1 (50) n (%)
same,TEAE: Increased troponin T,[1]; 0.32 mg/kg (n = 2),0 n (%)
same,TEAE: Malaise,[1]; 0.32 mg/kg (n = 2),1 (50) n (%)
same,TEAE: Nausea,[1]; 0.32 mg/kg (n = 2),0 n (%)
same,TEAE: Neutropenia,[1]; 0.32 mg/kg (n = 2),0 n (%)
same,TEAE: Pain in extremity,[1]; 0.32 mg/kg (n = 2),0 n (%)
same,TEAE: Pelvic pain,[1]; 0.32 mg/kg (n = 2),0 n (%)
same,TEAE: Vitreous floaters,[1]; 0.32 mg/kg (n = 2),0 n (%)
same,"Any AE, n (%)",[1]; 0.53 mg/kg (n = 3),3 (100) n (%)
same,TEAE: Anemia,[1]; 0.53 mg/kg (n = 3),0 n (%)
same,TEAE: Arthralgia,[1]; 0.53 mg/kg (n = 3),0 n (%)
same,TEAE: Arthritis,[1]; 0.53 mg/kg (n = 3),0 n (%)
same,TEAE: Diarrhea,[1]; 0.53 mg/kg (n = 3),0 n (%)
same,TEAE: Febrile neutropenia,[1]; 0.53 mg/kg (n = 3),0 n (%)
same,TEAE: Gastritis,[1]; 0.53 mg/kg (n = 3),0 n (%)
same,TEAE: Increased alanine aminotransferase,[1]; 0.53 mg/kg (n = 3),1 (33) n (%)
same,TEAE: Increased amylase,[1]; 0.53 mg/kg (n = 3),1 (33) n (%)
same,TEAE: Increased aspartate aminotransferase,[1]; 0.53 mg/kg (n = 3),2 (67) n (%)
same,TEAE: Increased troponin I,[1]; 0.53 mg/kg (n = 3),1 (33) n (%)
same,TEAE: Increased troponin T,[1]; 0.53 mg/kg (n = 3),1 (33) n (%)
same,TEAE: Malaise,[1]; 0.53 mg/kg (n = 3),0 n (%)
same,TEAE: Nausea,[1]; 0.53 mg/kg (n = 3),0 n (%)
same,TEAE: Neutropenia,[1]; 0.53 mg/kg (n = 3),0 n (%)
same,TEAE: Pain in extremity,[1]; 0.53 mg/kg (n = 3),0 n (%)
same,TEAE: Pelvic pain,[1]; 0.53 mg/kg (n = 3),0 n (%)
same,TEAE: Vitreous floaters,[1]; 0.53 mg/kg (n = 3),0 n (%)
same,dose-limiting toxicity,"[1]; 1 patient, grade 3 treatment-related troponin I elevation leading to discontinuation",classified as a DLT
same,patients with grade 3 TEAEs,[1]; N = 8,3 patients
same,patients with treatment-related AEs,[1]; N = 8,63%
same,"Any AE, n (%)",[1]; Total (N = 8),7 (88) n (%)
same,TEAE: Anemia,[1]; Total (N = 8),1 (13) n (%)
same,TEAE: Arthralgia,[1]; Total (N = 8),1 (13) n (%)
same,TEAE: Arthritis,[1]; Total (N = 8),1 (13) n (%)
same,TEAE: Diarrhea,[1]; Total (N = 8),2 (25) n (%)
same,TEAE: Febrile neutropenia,[1]; Total (N = 8),1 (13) n (%)
same,TEAE: Gastritis,[1]; Total (N = 8),1 (13) n (%)
same,TEAE: Increased alanine aminotransferase,[1]; Total (N = 8),1 (13) n (%)
same,TEAE: Increased amylase,[1]; Total (N = 8),1 (13) n (%)
same,TEAE: Increased aspartate aminotransferase,[1]; Total (N = 8),2 (25) n (%)
same,TEAE: Increased troponin I,[1]; Total (N = 8),2 (25) n (%)
same,TEAE: Increased troponin T,[1]; Total (N = 8),2 (25) n (%)
same,TEAE: Malaise,[1]; Total (N = 8),1 (13) n (%)
same,TEAE: Nausea,[1]; Total (N = 8),2 (25) n (%)
same,TEAE: Neutropenia,[1]; Total (N = 8),1 (13) n (%)
same,TEAE: Pain in extremity,[1]; Total (N = 8),1 (13) n (%)
same,TEAE: Pelvic pain,[1]; Total (N = 8),1 (13) n (%)
same,TEAE: Vitreous floaters,[1]; Total (N = 8),1 (13) n (%)
same,cardiac disorders,[1]; any dose cohort,No cardiac disorders of any grade
same,grade 5 toxicities,[1]; any dose cohort,no grade 5 toxicities
same,mortality,"[2]; beagle dog, 10 mg/kg after 1 or 2 doses (days 3–10)",Mortality
same,reversibility of toxicities,"[2]; dogs, after a 4-week recovery period",partially or fully reversible
same,primary target organs of apoptosis/single-cell necrosis,"[2]; dogs, once-weekly dosing","pancreas, liver, gastrointestinal tract, and the hematopoietic system"
same,"impact on cardiovascular endpoints (anatomic, clinical pathology, and/or function)","[2]; multidose GLP toxicity study, dogs",No direct impact
